These results are taken from patent US20210196714A1, “COMPOSITIONS AND METHODS FOR TREATING DISORDERS CHARACTERIZED WITH ABERRANT RAS/MAPK SIGNALING” (Duke University, priority 2018, published 2021).

The structures appear in SMILES notation. Entries after “also recorded” stand apart in the source; their conditions may differ.

One data set concerns pMEK1/2. Kind of data set: Western blot of pMEK1/2 in head lysate of 5 dpf embryos. To be noted: 100 nM or 500 nM. The data set is classed as in vivo, zebrafish. The method, then: FIG. 7: dmDf attenuates hyperactive MEK signaling in vivo. (a) Western blot analysis for the level of pMEK1/2 from the head lysate of 5 dpf zebrafish embryos. Depletion of kmt2d (lane 4) elevates the abundance of pMEK1/2 in comparison to control embryos (lane 1). […] (b) Summary of the relative levels of pMEK1/2 from three independent experiments. *p<0.05 (n=3). (c) kmt2d morphants were treated with serially increasing concentrations of dmDf. The embryos were scored for CE phenotypes as described earlier (n>25 for each concentration. (d) The distance between MK and CH cartilages was measured from the same embryos as in (c). *p<0.05; **p<0.01. Error bars show SEM (standard error of the mean).
The phenotypic rescue of the zebrafish KS models by dmDf predicts a successful attenuation of hyperactive MEK signaling. To test this hypothesis directly, experiments were conducted that suppressed kmt2d, harvested and pooled protein from embryo heads (n=20/condition) and measured the abundance of phosphorylated (activated) MEK1/2 (pMEK1/2).
Zebrafish larvae (5 dpf; n=20) were decapitated and heads were homogenized with RIPA buffer (50 mM NaCl, 1% NP40, 50 mM Tris-HCl pH 7.5, 0.1% SDS, 0.5% Na deoxycholate, 1 mM Na3VO4, and 1 mM NaF). […]

Data set [1] relates to kmt2d CRISPR mosaic mutants (F0). Kind of data set: CE defects in kmt2d-CRISPR F0 mutants. Format: in vivo, zebrafish. The following applies: kmt2d-CRISPR F0, 100 nM; listed as dmDf. From the text:
Prior and current genetic zebrafish models of KS focused on the newly discovered rap1a/rap1b genes. However, from the perspective of clinical utility, dmDf should be efficacious in kmt2d mutants, since loss of function mutations of the human ortholog account for as much as 75% of KS (see, Ng, S. B. et al. Nat Genet 42, 790-3 (2010); Li, Y. et al. Hum Genet 130, 715-24 (2011); Lu, J., Mo, G., Ling, Y. & Ji, L. Mol Med Rep 14, 3641-5 (2016); Miyake, N. et al. Am J Med Genet A 161a, 2234-43 (2013)). Therefore, experiments supplemented the testing tools by creating a kmt2d CRISPR/Cas9 mutant. A guide RNA targeting exon 4 of kmt2d induced efficient (˜99%) Cas9-mediated genome editing (FIG. 8). […]
For convergence and extension (CE) phenotyping, embryos were scored as described (see, Leitch, C. C. et al. Nat Genet 40, 443-8 (2008)) at the 8-10 somite stage, and images were captured using an AZ100 microscope and NIS Elements software (Nikon). […] The distance between Meckel's (MK) and ceratohyal (CH) cartilages was measured on ventral bright field images with Image J (NIH). […] Fluorescence signal on embryo heads was imaged with the Nikon AZ100 microscope and DS-Qi1MC digital camera using […] Z-stacks to generate extended depth of focus images. Cell numbers were quantified using the ImageJ ICTN plugin (NIH). […]

Data set [2] is described as follows: Solubility test in egg water. The data set is classed as physicochemical. To be noted: DMSO stock diluted in water (100×). The method, then: To guard against possible bias, the tool and negative control compounds were interspersed across the experiment and the zebrafish phenotyping team was blinded to the identity of each compound. Typical of small molecule storage, each of the 29 compounds was dissolved in dimethyl sulfoxide (DMSO). Therefore, such compounds were first diluted in water (100×) and its solubility tested in egg water; three compounds were insoluble and were thus removed from further testing (see, FIG. 1A). Next, each compound was diluted serially with egg water and toxicity tested by assaying the percentage of abnormal or dead embryos across three different concentrations (10 μM, 1 μM, 100 nM; FIG. 1B).

Turning to `CC(C)c1nc(-c2cccc(NS(=O)(=O)c3c(F)cccc3F)c2F)c(-c2ccnc(N)n2)s1` [Compound 8, desmethyl-Dabrafenib], the “abundance of pMEK1/2” value with pMEK1/2 (kmt2d suppressed, 5 dpf heads, listed as dmDf) was “attenuates hyperactivation of MEK1/2; also recorded: restored the abundance of pMEK1/2 to levels indistinguishable from wild type embryos”; with pMEK1/2 (uninjected embryos), “neither concentration had an appreciable effect”. Moreover, the CE defects result in data set [1] is “ameliorates the CE defects; also recorded: ameliorated significantly”. Further, the “solubility tested in egg water” value in data set [2] is reported as “soluble”.
